Measured values taken from ChEMBL document CHEMBL5212743, “Selectivity Literature for EUbOPEN Chemogenomics Library wave 3” (2023).

How the values were obtained:
[1] = target: Ribosomal protein S6 kinase alpha-6 (Homo sapiens) (UniProt Q9UK32); assay: Selectivity interaction (KinomeScan (DiscoverX)) EUB0000702a RPS6KA6; settings: at 1 µM
[2] = target: Serine/threonine-protein kinase PLK1 (Homo sapiens, UniProt P53350); assay: Selectivity interaction (KinomeScan (DiscoverX)) EUB0000702a PLK1; settings: at 1 µM
[3] = target: T1, Mitogen-activated protein kinase kinase kinase 19 (Homo sapiens) (UniProt Q56UN5); assay: Selectivity interaction (KinomeScan (DiscoverX)) EUB0000702a MAP3K19; settings: at 1 µM
T1 sequence (whole entry): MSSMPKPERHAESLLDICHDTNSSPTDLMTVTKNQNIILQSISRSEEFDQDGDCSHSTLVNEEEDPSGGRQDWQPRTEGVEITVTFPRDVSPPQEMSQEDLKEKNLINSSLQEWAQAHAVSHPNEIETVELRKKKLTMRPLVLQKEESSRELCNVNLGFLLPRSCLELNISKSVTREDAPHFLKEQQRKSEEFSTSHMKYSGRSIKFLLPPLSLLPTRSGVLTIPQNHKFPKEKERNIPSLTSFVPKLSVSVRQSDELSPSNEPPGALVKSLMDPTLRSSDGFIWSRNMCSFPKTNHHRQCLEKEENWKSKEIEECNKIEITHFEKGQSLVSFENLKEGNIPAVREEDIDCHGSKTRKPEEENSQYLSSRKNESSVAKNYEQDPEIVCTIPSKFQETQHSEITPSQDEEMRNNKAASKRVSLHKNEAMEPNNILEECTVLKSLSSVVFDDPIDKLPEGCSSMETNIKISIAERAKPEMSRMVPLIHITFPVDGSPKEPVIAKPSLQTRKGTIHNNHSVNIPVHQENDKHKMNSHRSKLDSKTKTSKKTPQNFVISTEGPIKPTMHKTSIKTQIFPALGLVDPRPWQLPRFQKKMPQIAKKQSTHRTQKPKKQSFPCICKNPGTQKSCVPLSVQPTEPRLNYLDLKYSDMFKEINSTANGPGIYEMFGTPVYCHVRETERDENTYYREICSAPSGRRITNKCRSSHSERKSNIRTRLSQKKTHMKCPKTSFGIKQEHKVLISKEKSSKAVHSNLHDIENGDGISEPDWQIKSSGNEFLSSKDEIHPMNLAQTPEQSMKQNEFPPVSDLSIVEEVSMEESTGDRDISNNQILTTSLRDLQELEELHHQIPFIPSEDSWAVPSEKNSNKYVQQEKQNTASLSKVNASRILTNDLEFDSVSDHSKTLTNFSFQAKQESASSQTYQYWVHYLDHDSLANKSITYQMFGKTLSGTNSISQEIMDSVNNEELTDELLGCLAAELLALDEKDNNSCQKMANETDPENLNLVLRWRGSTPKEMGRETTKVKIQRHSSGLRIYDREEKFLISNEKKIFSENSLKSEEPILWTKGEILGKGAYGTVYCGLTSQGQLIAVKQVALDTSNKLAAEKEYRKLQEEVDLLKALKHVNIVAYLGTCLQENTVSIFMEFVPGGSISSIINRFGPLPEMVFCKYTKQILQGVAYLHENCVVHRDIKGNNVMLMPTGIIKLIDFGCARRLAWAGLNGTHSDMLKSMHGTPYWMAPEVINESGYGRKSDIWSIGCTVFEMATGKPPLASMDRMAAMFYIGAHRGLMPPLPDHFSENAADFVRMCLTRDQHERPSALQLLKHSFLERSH

[4] = target: T2, Phosphatidylinositol 5-phosphate 4-kinase type-2 beta (Homo sapiens) (UniProt P78356); assay: Selectivity interaction (KinomeScan (DiscoverX)) EUB0000702a PIP4K2B; settings: at 1 µM
T2 sequence (whole entry): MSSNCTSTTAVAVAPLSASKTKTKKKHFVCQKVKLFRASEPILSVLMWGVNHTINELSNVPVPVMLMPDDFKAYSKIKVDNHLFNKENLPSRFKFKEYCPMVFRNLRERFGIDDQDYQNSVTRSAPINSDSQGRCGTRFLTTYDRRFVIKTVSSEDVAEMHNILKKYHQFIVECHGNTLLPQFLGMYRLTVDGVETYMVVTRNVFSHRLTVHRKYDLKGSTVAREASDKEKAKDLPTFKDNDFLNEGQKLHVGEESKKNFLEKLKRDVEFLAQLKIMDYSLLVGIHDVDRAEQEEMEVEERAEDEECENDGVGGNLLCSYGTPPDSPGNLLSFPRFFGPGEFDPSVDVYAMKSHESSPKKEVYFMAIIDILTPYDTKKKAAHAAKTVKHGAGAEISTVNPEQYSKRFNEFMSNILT

[5] = target: T3, Aurora kinase C (Homo sapiens) (UniProt Q9UQB9); settings: at 1 µM
T3 sequence (whole entry): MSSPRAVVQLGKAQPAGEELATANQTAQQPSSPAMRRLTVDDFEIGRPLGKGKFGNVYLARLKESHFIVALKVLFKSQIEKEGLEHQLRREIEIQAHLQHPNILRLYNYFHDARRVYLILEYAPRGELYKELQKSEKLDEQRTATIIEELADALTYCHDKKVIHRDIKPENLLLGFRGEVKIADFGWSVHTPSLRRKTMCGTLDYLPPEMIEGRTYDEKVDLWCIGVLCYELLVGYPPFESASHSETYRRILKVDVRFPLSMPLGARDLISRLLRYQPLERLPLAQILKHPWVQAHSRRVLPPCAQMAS

[6] = target: Macrophage-stimulating protein receptor (Homo sapiens) (UniProt Q04912); settings: at 1 µM
[7] = target: Muscle, skeletal receptor tyrosine-protein kinase (Homo sapiens) (UniProt O15146); settings: at 1 µM
[8] = target: Platelet-derived growth factor receptor beta (Homo sapiens, UniProt P09619); settings: at 1 µM
Chain of Platelet-derived growth factor receptor beta (P09619 whole entry): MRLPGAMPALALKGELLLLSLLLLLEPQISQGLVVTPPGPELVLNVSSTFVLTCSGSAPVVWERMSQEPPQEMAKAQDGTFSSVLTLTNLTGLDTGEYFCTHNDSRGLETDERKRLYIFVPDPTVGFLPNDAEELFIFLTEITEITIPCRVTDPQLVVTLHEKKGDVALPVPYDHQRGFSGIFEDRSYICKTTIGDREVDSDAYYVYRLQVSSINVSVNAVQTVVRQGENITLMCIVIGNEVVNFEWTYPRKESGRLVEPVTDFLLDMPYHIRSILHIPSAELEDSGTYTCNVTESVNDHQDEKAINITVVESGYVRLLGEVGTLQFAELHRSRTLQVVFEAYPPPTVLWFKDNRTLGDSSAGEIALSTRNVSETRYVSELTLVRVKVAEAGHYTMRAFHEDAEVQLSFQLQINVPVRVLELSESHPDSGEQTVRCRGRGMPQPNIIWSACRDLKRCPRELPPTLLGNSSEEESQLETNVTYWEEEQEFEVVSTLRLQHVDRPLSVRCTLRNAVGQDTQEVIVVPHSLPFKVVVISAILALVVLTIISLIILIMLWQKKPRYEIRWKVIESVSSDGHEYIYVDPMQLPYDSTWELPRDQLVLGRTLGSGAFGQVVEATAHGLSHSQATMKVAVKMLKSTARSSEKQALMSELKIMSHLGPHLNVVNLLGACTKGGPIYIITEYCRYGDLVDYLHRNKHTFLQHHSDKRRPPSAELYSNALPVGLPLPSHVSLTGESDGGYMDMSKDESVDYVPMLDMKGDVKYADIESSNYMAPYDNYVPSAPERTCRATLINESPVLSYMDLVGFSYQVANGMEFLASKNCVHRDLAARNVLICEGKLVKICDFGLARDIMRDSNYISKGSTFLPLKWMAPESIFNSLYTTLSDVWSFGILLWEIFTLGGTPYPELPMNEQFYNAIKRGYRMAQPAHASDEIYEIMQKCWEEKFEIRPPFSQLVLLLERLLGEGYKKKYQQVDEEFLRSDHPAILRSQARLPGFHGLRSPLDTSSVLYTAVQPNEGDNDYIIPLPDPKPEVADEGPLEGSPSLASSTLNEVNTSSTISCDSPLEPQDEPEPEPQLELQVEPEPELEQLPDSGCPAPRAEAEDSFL

[9] = target: Casein kinase II subunit alpha (Homo sapiens, UniProt P68400); assay: Selectivity interaction (Kinase panel (University of Dundee)) EUB0000169b CSNK2A1; settings: at 10 µM
Chain of Casein kinase II subunit alpha (P68400 whole entry, looked up): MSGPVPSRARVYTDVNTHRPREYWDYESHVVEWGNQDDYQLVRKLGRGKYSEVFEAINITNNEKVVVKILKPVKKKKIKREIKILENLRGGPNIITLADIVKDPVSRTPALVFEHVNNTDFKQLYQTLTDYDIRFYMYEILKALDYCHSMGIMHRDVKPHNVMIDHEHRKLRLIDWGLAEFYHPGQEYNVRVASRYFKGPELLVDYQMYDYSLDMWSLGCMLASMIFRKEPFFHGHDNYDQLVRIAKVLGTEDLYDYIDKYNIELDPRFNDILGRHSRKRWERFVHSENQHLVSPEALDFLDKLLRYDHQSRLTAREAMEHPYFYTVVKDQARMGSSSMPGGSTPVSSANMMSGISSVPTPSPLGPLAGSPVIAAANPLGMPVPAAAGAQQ

[10] = target: Glycogen synthase kinase-3 beta (Homo sapiens, UniProt P49841); assay: Selectivity interaction (Kinase panel (University of Dundee)) EUB0000169b GSK3B; settings: at 10 µM
[11] = target: Mitogen-activated protein kinase 11 (Homo sapiens) (UniProt Q15759); assay: Selectivity interaction (Kinase panel (University of Dundee)) EUB0000169b MAPK11; settings: at 10 µM
Chain of Mitogen-activated protein kinase 11 (Homo sapiens) (Q15759 whole entry): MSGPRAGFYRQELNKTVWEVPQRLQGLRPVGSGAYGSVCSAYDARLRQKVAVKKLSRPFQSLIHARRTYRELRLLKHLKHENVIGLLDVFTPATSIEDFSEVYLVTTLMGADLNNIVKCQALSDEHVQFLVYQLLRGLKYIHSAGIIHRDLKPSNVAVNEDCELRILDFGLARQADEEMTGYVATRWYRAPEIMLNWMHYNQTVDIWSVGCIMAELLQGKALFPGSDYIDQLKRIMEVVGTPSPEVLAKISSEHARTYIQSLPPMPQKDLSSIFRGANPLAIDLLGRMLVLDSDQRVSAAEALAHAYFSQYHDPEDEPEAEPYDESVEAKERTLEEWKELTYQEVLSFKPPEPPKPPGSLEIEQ

[12] = target: Mitogen-activated protein kinase 14 (Homo sapiens, UniProt Q16539); settings: at 10 µM
Chain of Mitogen-activated protein kinase 14 (Q16539 whole entry): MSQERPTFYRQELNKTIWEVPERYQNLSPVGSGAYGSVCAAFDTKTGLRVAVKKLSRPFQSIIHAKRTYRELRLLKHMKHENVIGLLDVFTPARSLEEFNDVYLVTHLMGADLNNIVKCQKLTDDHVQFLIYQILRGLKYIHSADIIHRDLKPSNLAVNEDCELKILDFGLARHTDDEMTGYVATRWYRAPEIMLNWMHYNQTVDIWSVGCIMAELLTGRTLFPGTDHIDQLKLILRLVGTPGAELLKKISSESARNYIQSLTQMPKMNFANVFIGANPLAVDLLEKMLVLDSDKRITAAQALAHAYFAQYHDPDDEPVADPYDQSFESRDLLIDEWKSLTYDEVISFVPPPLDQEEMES

[13] = target: Serine/threonine-protein kinase RIO3 (Homo sapiens) (UniProt O14730); assay: Selectivity interaction (KinomeScan (DiscoverX)) EUB0000698a RIOK3; settings: at 10 µM
Chain of Serine/threonine-protein kinase RIO3 (Homo sapiens) (O14730 whole entry): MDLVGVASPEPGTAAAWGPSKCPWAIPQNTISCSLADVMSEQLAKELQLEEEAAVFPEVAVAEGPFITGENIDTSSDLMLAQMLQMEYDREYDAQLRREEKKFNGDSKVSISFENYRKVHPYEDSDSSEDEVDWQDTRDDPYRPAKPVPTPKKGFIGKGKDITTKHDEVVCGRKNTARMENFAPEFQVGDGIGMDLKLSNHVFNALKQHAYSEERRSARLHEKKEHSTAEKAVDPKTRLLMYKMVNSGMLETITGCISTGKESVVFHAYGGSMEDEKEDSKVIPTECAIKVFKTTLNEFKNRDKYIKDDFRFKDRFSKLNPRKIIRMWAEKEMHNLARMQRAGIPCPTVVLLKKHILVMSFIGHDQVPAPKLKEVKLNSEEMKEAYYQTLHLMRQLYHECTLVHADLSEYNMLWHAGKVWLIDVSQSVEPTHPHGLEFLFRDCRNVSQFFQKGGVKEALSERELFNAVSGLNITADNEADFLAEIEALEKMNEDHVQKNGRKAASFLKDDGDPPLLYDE

[14] = target: Death-associated protein kinase 1 (Homo sapiens) (UniProt P53355); assay: Selectivity interaction (KinomeScan (DiscoverX)) EUB0000698a DAPK1; settings: at 10 µM
[15] = target: T2, Phosphatidylinositol 5-phosphate 4-kinase type-2 beta (Homo sapiens); assay: Selectivity interaction (KinomeScan (DiscoverX)) EUB0000698a PIP4K2B; settings: at 10 µM
[16] = target: Rho-associated protein kinase 1 (Homo sapiens) (UniProt Q13464); assay: Selectivity interaction (KinomeScan (DiscoverX)) EUB0000698a ROCK1; settings: at 10 µM
Chain of Rho-associated protein kinase 1 (Homo sapiens) (Q13464 2-1354 limits assumed): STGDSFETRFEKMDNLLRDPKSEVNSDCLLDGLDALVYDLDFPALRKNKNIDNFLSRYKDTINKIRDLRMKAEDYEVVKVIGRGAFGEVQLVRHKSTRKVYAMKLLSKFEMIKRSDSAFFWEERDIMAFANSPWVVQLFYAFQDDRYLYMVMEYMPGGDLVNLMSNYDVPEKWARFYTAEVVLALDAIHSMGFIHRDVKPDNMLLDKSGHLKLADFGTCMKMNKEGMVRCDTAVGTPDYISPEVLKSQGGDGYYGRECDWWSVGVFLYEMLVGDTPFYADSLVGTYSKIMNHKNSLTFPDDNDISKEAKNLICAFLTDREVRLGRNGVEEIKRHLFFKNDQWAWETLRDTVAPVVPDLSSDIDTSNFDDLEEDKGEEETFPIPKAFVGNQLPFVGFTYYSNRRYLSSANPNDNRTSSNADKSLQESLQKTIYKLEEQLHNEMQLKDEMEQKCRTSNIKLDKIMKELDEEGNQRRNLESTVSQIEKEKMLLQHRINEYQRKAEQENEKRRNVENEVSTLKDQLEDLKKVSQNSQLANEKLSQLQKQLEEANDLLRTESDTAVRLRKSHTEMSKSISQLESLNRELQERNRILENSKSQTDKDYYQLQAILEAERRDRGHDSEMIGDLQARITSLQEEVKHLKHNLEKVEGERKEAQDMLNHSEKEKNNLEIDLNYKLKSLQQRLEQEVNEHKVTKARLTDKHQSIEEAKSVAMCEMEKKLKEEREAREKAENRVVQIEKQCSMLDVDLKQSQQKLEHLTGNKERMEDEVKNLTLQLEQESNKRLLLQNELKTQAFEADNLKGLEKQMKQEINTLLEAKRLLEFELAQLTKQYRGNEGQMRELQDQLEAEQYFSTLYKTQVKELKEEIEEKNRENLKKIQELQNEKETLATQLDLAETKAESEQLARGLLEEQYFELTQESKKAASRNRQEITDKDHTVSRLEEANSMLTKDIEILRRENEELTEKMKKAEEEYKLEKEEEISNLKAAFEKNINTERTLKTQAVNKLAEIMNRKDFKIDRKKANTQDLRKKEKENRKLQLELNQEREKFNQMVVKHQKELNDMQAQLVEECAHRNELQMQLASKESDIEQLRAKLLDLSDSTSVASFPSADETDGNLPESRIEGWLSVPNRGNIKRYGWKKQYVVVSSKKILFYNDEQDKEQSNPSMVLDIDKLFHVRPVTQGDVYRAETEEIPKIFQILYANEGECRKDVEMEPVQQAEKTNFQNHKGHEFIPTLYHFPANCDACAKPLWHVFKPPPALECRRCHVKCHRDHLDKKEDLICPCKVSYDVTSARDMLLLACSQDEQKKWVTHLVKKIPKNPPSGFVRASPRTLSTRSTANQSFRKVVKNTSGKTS

Chain of Ribosomal protein S6 kinase alpha-6 (Homo sapiens) (Q9UK32 whole entry): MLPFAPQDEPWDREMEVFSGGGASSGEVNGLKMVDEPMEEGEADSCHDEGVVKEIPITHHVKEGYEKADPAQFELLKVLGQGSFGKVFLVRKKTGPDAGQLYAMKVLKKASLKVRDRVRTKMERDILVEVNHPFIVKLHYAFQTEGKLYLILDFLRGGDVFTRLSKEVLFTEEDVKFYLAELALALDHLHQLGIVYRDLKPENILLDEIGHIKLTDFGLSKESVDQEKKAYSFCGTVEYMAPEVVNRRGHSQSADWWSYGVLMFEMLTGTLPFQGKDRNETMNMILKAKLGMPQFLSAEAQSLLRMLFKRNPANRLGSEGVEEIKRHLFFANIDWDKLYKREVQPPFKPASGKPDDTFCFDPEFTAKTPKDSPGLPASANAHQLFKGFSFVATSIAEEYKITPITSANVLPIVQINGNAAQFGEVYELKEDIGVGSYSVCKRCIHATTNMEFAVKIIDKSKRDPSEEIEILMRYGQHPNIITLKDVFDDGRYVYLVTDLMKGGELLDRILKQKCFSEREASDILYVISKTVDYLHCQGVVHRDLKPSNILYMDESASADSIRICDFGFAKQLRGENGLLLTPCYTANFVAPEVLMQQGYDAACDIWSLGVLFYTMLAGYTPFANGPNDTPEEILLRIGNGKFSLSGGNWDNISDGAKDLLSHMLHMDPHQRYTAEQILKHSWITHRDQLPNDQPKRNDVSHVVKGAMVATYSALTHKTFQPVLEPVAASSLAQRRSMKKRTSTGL

With `CN(c1ccnc(CNc2nc(Nc3ccc4c(c3)CC(=O)N4)ncc2C(F)(F)F)n1)S(C)(=O)=O` [PF-00911705] the % of control [1] was 4.6%, the % of control [2] was 7.6% and the % of control [3] was 0.4%. It also gave a % of control [4] of 4.8%.

For `CCOc1cn(-c2ccc(F)cc2C)nc1C(=O)Nc1ccc(Oc2ccnc3cc(OC)c(OC)cc23)c(F)c1`, the % of control [5] was < 10%, the % of control [6] was < 10% and the % of control [7] was < 10%. For the same molecule, the % of control [8] was < 10%.

For `CC[C@@H]1C(=O)N(C)c2cnc(Nc3ccc(C(=O)NC4CCN(C)CC4)cc3OC)nc2N1C1CCCC1`, the % of control [9] was 103%, the % of control [10] was 69% and the % of control [11] was 97%. For the same molecule, the % of control [12] was 100%.

Work on `COc1cc2ncn(-c3cc(OCc4ccccc4C(F)(F)F)c(C(N)=O)s3)c2cc1OC` [GW843682X] yielded a % of control [13] of 4.2%, a % of control [14] of 8.6% and a % of control [15] of 6.6%. For the same molecule, the % of control [16] was 4.7%.
